Test results: PubChem BioAssay (NCI)
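How tested: cells in 96-well plates exposed to compound for 48 hours at five concentrations. At the GI50, growth is halved. At the TGI there is no net growth.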

What was measured:
Test in all cases: inhibition of tumour cell growth, NCI panel, 48 h
786-0 renal = system: 786-0 renal
NCI-H460 lung = system: NCI-H460 lung
KM12 colon = system: KM12 colon
UO-31 renal = system: UO-31 renal
BT-549 breast = system: BT-549 breast
HCC-2998 colon = system: HCC-2998 colon
OVCAR-5 ovarian = system: OVCAR-5 ovarian
EKVX NSCLC = system: EKVX NSCLC
SN12C renal = system: SN12C renal
SF-295 CNS = system: SF-295 CNS

SMILES | GI50 (786-0 renal) [µM] | TGI (786-0 renal) [µM] | GI50 (NCI-H460 lung) [µM] | TGI (NCI-H460 lung) [µM] | GI50 (KM12 colon) [µM] | TGI (KM12 colon) [µM] | GI50 (UO-31 renal) [µM] | TGI (UO-31 renal) [µM] | GI50 (BT-549 breast) [µM] | TGI (BT-549 breast) [µM] | GI50 (HCC-2998 colon) [µM] | TGI (HCC-2998 colon) [µM] | GI50 (OVCAR-5 ovarian) [µM] | TGI (OVCAR-5 ovarian) [µM] | GI50 (EKVX NSCLC) [µM] | TGI (EKVX NSCLC) [µM] | GI50 (SN12C renal) [µM] | TGI (SN12C renal) [µM] | GI50 (SF-295 CNS) [µM] | TGI (SF-295 CNS) [µM]
COc1ccc(CC(NC(=O)[C@H](C)NC(=O)CN2CCOCC2)C(=O)N[C@@H](Cc2ccccc2)C(=O)[C@@]2(C)CO2)cc1 (stereo partly drawn) | 0.364 | 1.76 | 0.422 | 1.96 | 0.162 | 0.338 | 3.2 | 15.2 | 0.154 | 0.391 | 0.174 | 0.324 | 0.272 | 1.19 | 0.469 | > 100 | 0.263 | 1.53 | 0.185 | 0.587
O=C(Nc1ccc(Cl)cc1)c1cc(S(=O)(=O)Nc2nnc(-c3ccccc3)c(-c3ccccc3)n2)c(SCc2ccccc2)cc1Cl | 23.6 | > 57.8 | 25.2 | 81.8 | 21.9 | > 62 | 35.9 | > 100 | 34.9 | > 70.5 | 17.6 | 33.7 | 36.4 | > 58 | 32.1 | > 63.8 | 16.4 | 38.4 | 19 | 41.5
COc1cc(-c2cc(/C=C3\C(=O)Nc4ccccc43)[nH]n2)cc(OC)c1OC | 5.1 | 20.2 | 4.35 | 19 | 1.26 | 10.7 | 1.91 | 12.2 | 2.1 | 6.58 | 13.1 | 29.4 | 5.16 | 27.9 |  |  | 3.58 | 14.5 | 2.84 | 11.6
CCN(CC)CCOc1ccc2c(c1)C(=O)c1cc(OCCN(CC)CC)ccc1-2 | 7.17 | 21.8 | 4.03 | 15.2 | 5.36 | 24.9 | 3.52 | 26.3 | 20.4 | 46.5 | 10 | 22.6 | 35.6 | 69.7 | 20 | 63.6 | 12.6 | 45.1 | 17.2 | 49.1
CC1SC(c2c(Cl)cccc2Cl)N(NC(=O)C(O)c2ccccc2)C1=O (stereo not drawn) | > 100 | > 100 | > 100 | > 100 | 44.1 | > 100 | > 100 | > 100 | > 100 | > 100 | > 100 | > 100 | > 100 | > 100 | > 100 | > 100 | > 100 | > 100 | > 100 | > 100
O=S(=O)(O)/C(=C\c1ccccc1)c1ccccc1 (tested in a mixture with another compound) |  | > 100 |  | > 100 |  | > 100 |  | > 100 |  | > 100 |  |  |  | > 100 |  | > 100 |  | > 100 |  | > 100
CC(O)(CNS(=O)(=O)c1ccccc1)c1ccccc1 (stereo not drawn) |  | > 100 |  | > 100 |  | > 100 |  | > 100 |  | > 100 |  |  |  | > 100 |  | > 100 |  | > 100 |  | > 100
COC(=O)C1(C2CC/C(C)=C/CC/C(C)=C/CC[C@@]3(C)O[C@@H]3C2)CC1 (stereo partly drawn) | 35.5 | > 70 | 35.5 | > 100 | 18.9 | 43.5 | 26.6 | > 56.3 | > 100 | > 100 |  | > 20.8 | > 100 | > 100 | > 100 | > 100 | > 100 | > 100 | > 60.4 | > 100
NCCP(=O)(O)O |  | > 100 |  | > 100 |  | > 100 |  | > 100 |  | > 100 |  | > 100 |  | > 100 |  | > 100 |  | > 100 |  | > 100
O=C(O)c1cscc1Cc1cccs1 |  | > 100 |  | > 100 |  | > 100 |  |  |  | > 100 |  |  |  | > 100 |  | > 100 |  | > 100 |  | > 100
CCCCCCNc1nc(N2CCOCC2)c2[nH]c(NCCCCCC)nc2n1 | 1.8 | 3.19 | 1.55 | 2.97 | 1.67 | 3.06 | 1.36 | 2.84 | 1.66 | 3.04 | 1.7 | 3.07 | 1.61 | 2.96 |  |  | 1.76 | 3.32 | 1.65 | 3.21
Cc1nc2cc(Nc3nc(Nc4ccc(F)cc4)nc(N4CCN(C)CC4)n3)ccc2n1Cc1ccccc1 | 1.54 | 3.32 | 1.9 | 3.83 | 1.73 | 3.25 | 1.79 | 3.82 | 1.73 | 3.44 |  |  | 2 | 4.7 |  |  | 1.67 | 3.34 | 1.82 | 3.6
Cc1ccc(C2C3=C(N=c4s/c(=C/c5ccc(Br)cc5)c(=O)n42)c2ccc4ccccc4c2OCC3)cc1 (stereo not drawn) | > 100 | > 100 | > 100 | > 100 | > 100 | > 100 | > 100 | > 100 | > 100 | > 100 | > 100 | > 100 | > 100 | > 100 | > 100 | > 100 |  |  | > 100 | > 100
O=S(=O)(NCCNc1cc(-c2cn(-c3ccccc3)nc2-c2cccc(O)c2)ccn1)c1ccc(Cl)cc1 | 2.54 | 9.78 | 3.34 | 11.9 | 2.63 | 9.62 | 2.92 | 12.1 | 2.06 | 7.65 | 1.99 | 4.14 | 2.66 | 11 | 2.87 | 31.2 | 3.47 | 14 |  | 
